Entries after “also recorded” stand apart in the source; their conditions may differ.
Legend:
pri-miR-96 [1] = experiment: In vitro cleavage of pri-miR-96 by RNase L (fluorescence-based and gel mapping); assay type: biochemical; conditions: in vitro competition
Source text: Determination of RNA cleavage by fluorescence: A model RNase L substrate RNA1 labeled with a 5′ 6-Fluorescein and 3′ Iowa Black® FQ (5′-6FAM-UUAUCAAAU […] 3′ (SEQ ID NO: 1)—Iowa Black® FQ: RNA 1) was purchased from Integrated DNA Technologies, Inc. (IDT), which also HPLC purified the oligonucleotide. A model of pri-miR-96 RNA labeled with 5′ 6-Fluorescein and 3′ Quencher (IQ4, structure undisclosed) (5′-6FAM […] […] 3′ (SEQ ID NO: 2)—IQ4: RNA 2) was purchased from and HPLC purified by Chemgenes. Solutions of RNA 1 or RNA 2 were folded at 70° C. for 5 min and cooled to room temperature in RNase L Buffer without MgCl2, β-mercaptoethanol or ATP. After cooling, the RNA was supplemented with 10 mM MgCl2, fresh 7 mM β-mercaptoethanol, and 50 μM of ATP. […] Fluorescence intensity (Ex: 485 nm, Em: 528 nm) was measured on a BioTek FLx800 plate reader. Relative Fluorescence Enhancement was calculated by normalizing the fluorescent signal of treated RNA samples to the fluorescent signal of untreated RNA samples. Percentage RNA Cleavage was calculated by normalizing sample fluorescent signals relative to the maximum fluorescent signal, set as 100%. […] Normalized RNA Cleavage was calculated by normalizing sample fluorescent signals relative to the maximum fluorescent signal (compound with no tRNA), set as 1. […]

pri-miR-96 [2] = experiment: pri-miR-96 levels / cleavage in cells by RT-qPCR; assay type: cell-based
Method: (§1) Cell culture: All cells were maintained at 37° C. with 5% CO2. MDA-MB-231 (HTB-26, ATCC) cells were cultured in RPMI 1640 medium with L-glutamine & 25 mM HEPES (Corning) supplemented with 10% FBS (Sigma) and 1×Antibiotic-Antimycotic (Corning). A549 (CCL-185, ATCC), HeLa (CCL-2, ATCC), and MCF7 (HTB-22, ATCC) cells were cultured in DMEM medium with 4.5 g/L glucose (Corning), supplemented with 10% FBS (Sigma), 1×Glutagro (Corning), and 1×Antibiotic-Antimycotic (Corning). MCF10a (CRL-10317, ATCC) cells were cultured in DMEM/F12 50/50 with L-glutamine & 15 mM HEPES (Corning), supplemented with 10% FBS (Sigma), 20 ng/mL human epidermal growth factor (Pepro Tech Inc.), […] hydrocortisone (Pfaltz & Bauer), 100 ng/mL cholera toxin (Sigma-Alrich), 10 μg/mL insulin (Sigma-Aldrich), and 1×Antibiotic-Antimycotic (Corning). […]
(§2) RNA isolation and RT-qPCR: Total RNA was extracted from untreated and treated cells by using a Quick-RNA MiniPrep (Zymo Research) per the manufacturer's protocol. […] RNA expression levels were determined using the ΔΔCt method and normalized with U6 small nuclear RNA as a housekeeping gene. Upon treatment with chimeric compound 2, relative cleavage levels were calculated according to equation 2 (Eq. 2) in order to control for the effect of parent compound 1a, on pri-miR-96 expression: […]

mature miR-96 = experiment: Mature miR-96 levels in cells by RT-qPCR; assay type: cell-based; conditions: MDA-MB-231 cells
Method: as §1, §2

pri-miR-96's Drosha site = conditions: parent compound, pri-miR-96 Drosha site; cited from earlier work

**Q.** Which “Cleavage at U12 by 2 upon addition of the parent compound” value (pri-miR-96 [1]) does the source give for Targaprimir-96 [Compound 1a] here?
**A.** Its value is “inhibited”.

**Q.** And the pri-miR-96 levels (pri-miR-96 [2]; MDA-MB-231 cells, RT-qPCR)?
**A.** Its pri-miR-96 levels is “increased; also recorded: boosted”.

**Q.** And the “2-mediated pri-miR-96 cleavage upon co-treatment with 1a” value (pri-miR-96 [2]; constant concentration of 2, increasing concentrations of 1a)?
**A.** Its value is “decreased pri-miR-96 cleavage levels in a dose dependent fashion; also recorded: reduced”.

**Q.** And the “mature miR-96 levels” value (mature miR-96)?
**A.** The value was “reduced”.

**Q.** What about the Kd (pri-miR-96's Drosha site) of the same substance?
**A.** Its Kd is 20 nM.
